Assay [1] relates to Trypanosoma cruzi. As to the kind of experiment: Trypanocidal activity against trypomastigote stage of Trypanosoma cruzi NINOA infected in NIH mouse blood assessed as parasite lysis at 10 ug/ml after 24 hrs by optical microscopic method relative to control. In kind it is functional.
Assay [2] relates to Trypanosoma cruzi. Description: Trypanocidal activity against trypomastigote stage of Trypanosoma cruzi INC-5 infected in NIH mouse blood assessed as parasite lysis at 10 ug/ml after 24 hrs by optical microscopic method relative to control. In kind it is functional.
The subject of assay [3] is Trypanosoma cruzi. As to the kind of experiment: Trypanocidal activity against trypomastigote stage of Trypanosoma cruzi NINOA infected in NIH mouse blood assessed as […] parasite lysis after 24 hrs by optical microscopic method. In kind it is functional.
The test system of assay [4] is Trypanosoma cruzi. Description: Trypanocidal activity against trypomastigote stage of Trypanosoma cruzi INC-5 infected in NIH mouse blood assessed as parasite lysis after 24 hrs by optical microscopic method. In kind it is functional. As to conditions: INC-5, Blood.
Assay [5] deals with T1, Trans-sialidase (Trypanosoma cruzi) (UniProt Q26964).
T1 sequence (whole entry): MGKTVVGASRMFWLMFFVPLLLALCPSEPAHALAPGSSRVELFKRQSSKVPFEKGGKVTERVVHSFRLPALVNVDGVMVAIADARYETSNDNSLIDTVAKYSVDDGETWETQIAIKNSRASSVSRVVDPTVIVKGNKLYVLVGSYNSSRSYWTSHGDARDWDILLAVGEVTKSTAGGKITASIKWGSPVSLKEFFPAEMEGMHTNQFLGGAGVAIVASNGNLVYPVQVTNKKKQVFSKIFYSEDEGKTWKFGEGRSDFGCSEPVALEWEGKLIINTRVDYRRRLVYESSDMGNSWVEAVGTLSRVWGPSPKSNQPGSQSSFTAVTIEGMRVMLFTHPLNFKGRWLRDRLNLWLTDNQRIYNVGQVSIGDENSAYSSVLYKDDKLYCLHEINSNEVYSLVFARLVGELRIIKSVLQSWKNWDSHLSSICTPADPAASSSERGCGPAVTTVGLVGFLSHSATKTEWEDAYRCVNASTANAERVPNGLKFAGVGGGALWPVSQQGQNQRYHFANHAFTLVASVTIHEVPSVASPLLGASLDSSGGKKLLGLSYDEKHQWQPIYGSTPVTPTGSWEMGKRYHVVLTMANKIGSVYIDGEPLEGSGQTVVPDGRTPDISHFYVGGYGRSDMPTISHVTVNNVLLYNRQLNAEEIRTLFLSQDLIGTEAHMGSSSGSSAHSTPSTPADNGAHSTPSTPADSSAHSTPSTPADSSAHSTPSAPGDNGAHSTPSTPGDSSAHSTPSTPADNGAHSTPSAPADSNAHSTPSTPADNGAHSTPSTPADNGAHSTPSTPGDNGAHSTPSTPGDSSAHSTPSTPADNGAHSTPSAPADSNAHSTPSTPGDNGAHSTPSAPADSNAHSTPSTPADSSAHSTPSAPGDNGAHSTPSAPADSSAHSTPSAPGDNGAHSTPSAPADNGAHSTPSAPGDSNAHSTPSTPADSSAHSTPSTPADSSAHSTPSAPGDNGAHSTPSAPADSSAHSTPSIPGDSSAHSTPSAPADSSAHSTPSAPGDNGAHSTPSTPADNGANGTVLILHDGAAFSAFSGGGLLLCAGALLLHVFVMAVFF
Description: Inhibition of Trypanosoma cruzi trans-sialidase at 1 mM assessed as reduction of 3'-sialyl-N-acetyllactosamine formation at 1 mM using N-acetyllactosamine as substrate and 3-sialyl-lactose as donor incubated for 15 mins by HPAEC-PAD relative to control.

For the compound `O=C(O)CC(c1ccco1)N1C(=O)c2ccc(C(=O)O)cc2C1=O` (stereo not given), the results for the Activity in the assay on Trypanosoma cruzi [1] and in the assay on Trypanosoma cruzi [2] were 77% and 55%, respectively. The LC50 (usually the concentration lethal to half of the exposed cells or organisms) came to 77.6 µM with Trypanosoma cruzi [3] and 102 µM with Trypanosoma cruzi [4]. In addition, the inhibition (in general, how much of the control response was suppressed) in assay [5] is 19.2%.
Turning to `NC(CC(=O)O)c1ccc(O)cc1` (stereo not given), the figures for the Activity in the assay with Trypanosoma cruzi [1] and with Trypanosoma cruzi [2] were 50% and 76%, respectively. The results for the LC50 in the assay with Trypanosoma cruzi [3] and with Trypanosoma cruzi [4] were 152 µM and 127 µM, respectively. Also, the inhibition in assay [5] stood at 1.4%.
With `Cc1ccc2c(c1)C(=O)N(C(CC(=O)O)c1ccc(O)cc1)C2=O` (stereo not given), the Activity amounted to 38% in the assay on Trypanosoma cruzi [1] and 15% with Trypanosoma cruzi [2]. The inhibition in assay [5] worked out at 82.5%.
As for `O=C(O)CC(c1ccc(O)cc1)N1C(=O)c2ccccc2C1=O` (stereo not given), the Activity with Trypanosoma cruzi [1] is recorded as 77%; in the assay on Trypanosoma cruzi [2] it was 68%. For the same compound, the values for the LC50 in the assay with Trypanosoma cruzi [3] and with Trypanosoma cruzi [4] were 71.4 µM and 91 µM, respectively. Moreover, the inhibition in assay [5] was 5.6%.
Turning to `O=C(O)CC(c1ccc2ccccc2c1)N1C(=O)c2ccc(C(=O)O)cc2C1=O` (stereo not given), the Activity was 42% in the assay on Trypanosoma cruzi [1] and 24% in the assay with Trypanosoma cruzi [2]. The inhibition in assay [5] worked out at 66.9%.
On the same counts, the results for `O=C(O)CC(c1ccco1)N1C(=O)c2ccccc2C1=O` (stereo not given) are 16%, 21% and 76.5%.
Consider `Cc1ccc2c(c1)C(=O)N(C(CC(=O)O)c1ccco1)C2=O` (stereo not given), for which the Activity stood at 27% with Trypanosoma cruzi [1] and 40% in the assay on Trypanosoma cruzi [2]. The inhibition in assay [5] came to 40%.
For the compound `O=C(O)CC(c1ccc(O)cc1)N1C(=O)c2ccc(C(=O)O)cc2C1=O` (stereo not given), the Activity is on record as 43% with Trypanosoma cruzi [1] and 71% with Trypanosoma cruzi [2]. Besides, in assay [5], the inhibition is 53%.
Regarding `Cc1ccc2c(c1)C(=O)N(C(CC(=O)O)c1ccc3ccccc3c1)C2=O` (stereo not given), the Activity in the assay with Trypanosoma cruzi [1] is reported as 63%; with Trypanosoma cruzi [2] it was 65%. Further, the LC50 in the assay on Trypanosoma cruzi [3] came out at 52.7 µM; with Trypanosoma cruzi [4], 46.2 µM. Moreover, in assay [5], the inhibition stood at 86.9%.
On the same counts, the results for `NC(CC(=O)O)c1ccc2ccccc2c1` (stereo not given) are 60%, 60%, 98.7 µM, 103 µM and 8.3%.
Turning to `O=C(O)CC(c1ccc2ccccc2c1)N1C(=O)c2ccccc2C1=O` (stereo not given), the Activity in the assay on Trypanosoma cruzi [1] came out at 57%; with Trypanosoma cruzi [2], 62%. Further, the LC50 came to 97.3 µM with Trypanosoma cruzi [3] and 117 µM in the assay on Trypanosoma cruzi [4]. For the same compound, in assay [5], the inhibition worked out at 65.8%.
`NC(CC(=O)O)c1ccco1` (stereo not given): the Activity with Trypanosoma cruzi [1] is given as 53%; in the assay on Trypanosoma cruzi [2], 50%. For the same compound, the figures for the 50% lethal concentration (LC50) in the assay on Trypanosoma cruzi [3] and with Trypanosoma cruzi [4] were 99.1 µM and 229 µM, respectively. Further, the inhibition in assay [5] is 11.9%.

Values taken from ChEMBL document CHEMBL4152334, “Synthesis, molecular docking and biological evaluation of novel phthaloyl derivatives of 3-amino-3-aryl propionic acids as inhibitors of Trypanosoma cruzi trans-sialidase” (2018).
